In patent US8501770B2 (ArQule, Inc., priority 2009, dated 2013):

Target: Full-length inactive AKT1 (Homo sapiens, UniProt P31749)
Test: Inactive Akt Alpha Screen Assay
Assay type: biochemical
Details: values not marked with "*"; read-out: Akt1 IC50, (AlphaScreen)
Method: AKT1 activity was assayed using the GSK3-derived biotinylated peptide substrate, crosstide (biotin-[…]), and AlphaScreen™ (Amplified Luminescent Proximity Homogeneous Assay) technology. AKT1 activation was achieved by the addition of the activating kinases PDK1 and MAPKAPK2, lipid vesicles, and ATP. The extent of peptide phosphorylation was determined using a phospho-AKT substrate antibody and acceptor beads conjugated to Protein A and donor beads conjugated to streptavidin that bind to the biotin on the peptide. Excitation of the donor beads converted ambient oxygen to excited singlet oxygen which, when in close proximity to acceptor beads, reacted with acceptor beads resulting in signal amplification.
Assay plates were incubated for 90 minutes at room temperature in the dark, and the plates were read on a Perkin Elmer Envision Multilabel plate reader (excitation wavelength: […], emission wavelength: 570 nm).

Chain of Full-length inactive AKT1 (P31749 whole entry): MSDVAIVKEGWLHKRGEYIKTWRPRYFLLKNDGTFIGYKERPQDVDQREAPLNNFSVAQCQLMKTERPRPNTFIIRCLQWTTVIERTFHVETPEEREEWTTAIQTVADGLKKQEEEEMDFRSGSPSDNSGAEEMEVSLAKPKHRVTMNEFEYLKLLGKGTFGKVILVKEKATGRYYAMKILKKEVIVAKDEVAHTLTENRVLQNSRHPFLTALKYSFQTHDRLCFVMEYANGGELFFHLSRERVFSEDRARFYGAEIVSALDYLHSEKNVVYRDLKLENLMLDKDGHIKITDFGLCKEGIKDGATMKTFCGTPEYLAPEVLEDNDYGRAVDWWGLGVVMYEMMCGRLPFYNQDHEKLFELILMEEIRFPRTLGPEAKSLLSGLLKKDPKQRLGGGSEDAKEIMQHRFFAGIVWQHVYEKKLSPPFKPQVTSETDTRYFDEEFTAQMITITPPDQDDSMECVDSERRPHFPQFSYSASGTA

IC50 [nM]	Compound
600	COc1ccc(Nc2ccc3nc(-c4cccnc4N)n(-c4ccc(CNC(=O)c5ccccc5)cc4)c3n2)cc1 [Example 175]
1200	COc1ccc(NC(=O)NCc2ccc(-n3c(-c4cccnc4N)nc4cc(F)cnc43)cc2)cc1 [Example 176, 1-{4-[2-(2-aminopyridin-3-yl)-6-fluoro-3H-imidazo[4,5-b]pyridin-3-yl]benzyl}-3-(4-methoxyphenyl)urea]
2100	COc1ccc(S(=O)(=O)NCc2ccc(-n3c(-c4cccnc4N)nc4cc(Br)cnc43)cc2)cc1 [Example 177, N-{4-[2-(2-aminopyridin-3-yl)-6-bromo-3H-imidazo[4,5-b]pyridin-3-yl]benzyl}-4-methoxybenzenesulfonamide]
530	Cc1ccnc(NC(=O)c2ccc(-n3c(-c4cccnc4N)nc4cccnc43)cc2)c1 [Example 179, 4-[2-(2-aminopyridin-3-yl)-3H-imidazo[4,5-b]pyridin-3-yl]-N-(4-methylpyridin-2-yl)benzamide]
590	Cc1ccc2cc(NC(=O)c3ccc(-n4c(-c5cccnc5N)nc5cccnc54)cc3)ccc2n1 [Example 180, 4-[2-(2-aminopyridin-3-yl)-3H-imidazo[4,5-b]pyridin-3-yl]-N-(2-methylquinolin-6-yl)benzamide]
840	CC(=O)Nc1ccc(NC(=O)c2ccc(-n3c(-c4cccnc4N)nc4cccnc43)cc2)cc1 [Example 181, N-[4-(acetylamino)phenyl]-4-[2-(2-aminopyridin-3-yl)-3H-imidazo[4,5-b]pyridin-3-yl]benzamide]
1100	Nc1ncccc1-c1nc2cccnc2n1-c1ccc(C(=O)Nc2ccc3c(c2)C(=O)OC3)cc1 [Example 182, 4-[2-(2-aminopyridin-3-yl)-3H-imidazo[4,5-b]pyridin-3-yl]-N-(3-oxo-1,3-dihydro-2-benzofuran-5-yl)benzamide]
1500	N#Cc1cccc(NC(=O)c2ccc(-n3c(-c4cccnc4N)nc4cccnc43)cc2)c1 [Example 183, 4-[2-(2-aminopyridin-3-yl)-3H-imidazo[4,5-b]pyridin-3-yl]-N-(3-cyanophenyl)benzamide]
1900	COc1cccc(NC(=O)c2ccc(-n3c(-c4cccnc4N)nc4cccnc43)cc2)c1 [Example 184, 4-[2-(2-aminopyridin-3-yl)-3H-imidazo[4,5-b]pyridin-3-yl]-N-(3-methoxyphenyl)benzamide]
2500	COc1ccc(NC(=O)c2ccc(-n3c(-c4cccnc4N)nc4cccnc43)cc2)cc1F [Example 185, 4-[2-(2-aminopyridin-3-yl)-3H-imidazo[4,5-b]pyridin-3-yl]-N-(3-fluoro-4-methoxyphenyl)benzamide]
2500	Cc1ccc(NC(=O)c2ccc(-n3c(-c4cccnc4N)nc4cccnc43)cc2)cc1 [Example 186, 4-[2-(2-aminopyridin-3-yl)-3H-imidazo[4,5-b]pyridin-3-yl]-N-(4-methylphenyl)benzamide]
2100	Nc1ncccc1-c1nc2cc(C(F)(F)F)cnc2n1-c1ccc(CNC(=O)c2ccc(Br)cc2)cc1 [Example 187, N-{4-[2-(2-aminopyridin-3-yl)-6-(trifluoromethyl)-3H-imidazo[4,5-b]pyridin-3-yl]benzyl}-4-bromobenzamide]
360	Nc1ncccc1-c1nc2cc(C(F)(F)F)cnc2n1-c1ccc(CNC(=O)c2cccc(F)c2)cc1 [Example 188, N-{4-[2-(2-aminopyridin-3-yl)-6-(trifluoromethyl)-3H-imidazo[4,5-b]pyridin-3-yl]benzyl}-3-fluorobenzamide]
110	Cc1ccnc2c1nc(-c1cccnc1N)n2-c1ccc(CNC(=O)c2cccc(F)c2)cc1 [Example 190, N-(4-(2-(2-aminopyridin-3-yl)-7-methyl-3H-imidazo[4,5-b]pyridin-3-yl)benzyl)-3-fluorobenzamide]
1100	Nc1ncccc1-c1nc2ccc(N3CCCCC3)nc2n1-c1ccc(CNC(=O)c2ccc(Br)cc2)cc1 [Example 191, N-(4-(2-(2-aminopyridin-3-yl)-5-(piperidin-1-yl)-3H-imidazo[4,5-b]pyridin-3-yl)benzyl)-4-bromobenzamide]
200	Nc1ncccc1-c1nc2ccc(N3CCCCC3)nc2n1-c1ccc(CNC(=O)c2ccccc2)cc1 [Example 192, N-(4-(2-(2-aminopyridin-3-yl)-5-(piperidin-1-yl)-3H-imidazo[4,5-b]pyridin-3-yl)benzyl)benzamide]
62	CC(=O)Nc1ccc(NC(=O)Cc2ccc(-n3c(-c4cccnc4N)nc4cc(C)cnc43)cc2)cc1 [Example 193, N-(4-acetamidophenyl)-2-(4-(2-(2-aminopyridin-3-yl)-6-methyl-3H-imidazo[4,5-b]pyridin-3-yl)phenyl)acetamide]

IC50 [nM]	Compound
47	Cc1cnc2c(c1)nc(-c1cccnc1N)n2-c1ccc(CC(=O)Nc2ccc3nc(C)ccc3c2)cc1 [Example 194, 2-(4-(2-(2-aminopyridin-3-yl)-6-methyl-3H-imidazo[4,5-b]pyridin-3-yl)phenyl)-N-(2-methylquinolin-6-yl)acetamide]
76	Cc1cnc2c(c1)nc(-c1cccnc1N)n2-c1ccc(CC(=O)Nc2ccccc2)cc1 [Example 195, 2-(4-(2-(2-aminopyridin-3-yl)-6-methyl-3H-imidazo[4,5-b]pyridin-3-yl)phenyl)-N-phenylacetamide]
140	CS(=O)(=O)NCc1ccc(-n2c(-c3cccnc3N)nc3cc(-c4cccnc4)cnc32)cc1 [Example 196, N-(4-(2-(2-aminopyridin-3-yl)-6-(pyridin-3-yl)-3H-imidazo[4,5-b]pyridin-3-yl)benzyl)methanesulfonamide]
47	CC(=O)Nc1ccc(-c2cnc3c(c2)nc(-c2cccnc2N)n3-c2ccc(CNC(=O)c3ccccc3)cc2)cc1 [Example 197, N-(4-(6-(4-acetamidophenyl)-2-(2-aminopyridin-3-yl)-3H-imidazo[4,5-b]pyridin-3-yl)benzyl)benzamide]
61	Nc1ncccc1-c1nc2ccc(Cl)nc2n1-c1ccc(CNC(=O)c2ccccc2)cc1 [Example 198, N-(4-(2-(2-aminopyridin-3-yl)-5-chloro-3H-imidazo[4,5-b]pyridin-3-yl)benzyl)benzamide]
200	Nc1ncccc1-c1nc2cc(C(F)(F)F)cnc2n1-c1ccc(CNC(=O)c2ccccc2)cc1 [Example 199, N-(4-(2-(2-aminopyridin-3-yl)-6-(trifluoromethyl)-3H-imidazo[4,5-b]pyridin-3-yl)benzyl)benzamide]
74	Nc1ncccc1-c1nc2cc(-c3cccnc3)cnc2n1-c1ccc(CNS(=O)(=O)c2ccccc2)cc1 [Example 200, N-(4-(2-(2-aminopyridin-3-yl)-6-(pyridin-3-yl)-3H-imidazo[4,5-b]pyridin-3-yl)benzyl)benzenesulfonamide]
32	Nc1ncccc1-c1nc2ccc(-c3cccnc3)nc2n1-c1ccc(CNC(=O)c2ccccc2)cc1 [Example 201, N-(4-(2-(2-aminopyridin-3-yl)-5-(pyridin-3-yl)-3H-imidazo[4,5-b]pyridin-3-yl)benzyl)benzamide]
27	Nc1ncccc1-c1nc2ccc(-c3ccccc3)nc2n1-c1ccc(CNC(=O)c2ccccc2)cc1 [Example 202, N-(4-(2-(2-aminopyridin-3-yl)-5-phenyl-3H-imidazo[4,5-b]pyridin-3-yl)benzyl)benzamide]
81	Nc1ncccc1-c1nc2ccc(Cl)nc2n1-c1ccc(CNC(=O)c2cccc(F)c2)cc1 [Example 203, N-(4-(2-(2-aminopyridin-3-yl)-5-chloro-3H-imidazo[4,5-b]pyridin-3-yl)benzyl)-3-fluorobenzamide]
7.3	CC(=O)Nc1cccc(-c2ccc3nc(-c4cccnc4N)n(-c4ccc(CNC(=O)c5cccc(F)c5)cc4)c3n2)c1 [Example 204, N-(4-(5-(3-acetamidophenyl)-2-(2-aminopyridin-3-yl)-3H-imidazo[4,5-b]pyridin-3-yl)benzyl)-3-fluorobenzamide]
59	Nc1ncccc1-c1nc2cc(-c3cccnc3)cnc2n1-c1ccc(CNS(=O)(=O)C2CC2)cc1 [Example 205, N-(4-(2-(2-aminopyridin-3-yl)-6-(pyridin-3-yl)-3H-imidazo[4,5-b]pyridin-3-yl)benzyl)cyclopropanesulfonamide]
130	COc1ccc(S(=O)(=O)NCc2ccc(-n3c(-c4cccnc4N)nc4cc(-c5cccnc5)cnc43)cc2)cc1 [Example 206, N-(4-(2-(2-aminopyridin-3-yl)-6-(pyridin-3-yl)-3H-imidazo[4,5-b]pyridin-3-yl)benzyl)-4-methoxybenzenesulfonamide]
60	Nc1ncccc1-c1nc2cc(-c3cccnc3)cnc2n1-c1ccc(CNS(=O)(=O)c2ccc(Cl)cc2)cc1 [Example 207, N-(4-(2-(2-aminopyridin-3-yl)-6-(pyridin-3-yl)-3H-imidazo[4,5-b]pyridin-3-yl)benzyl)-4-chlorobenzenesulfonamide]
180	CC(C)(C)OC(=O)NCc1ccc(-n2c(-c3cccnc3N)nc3ccc(-c4ccncc4)nc32)cc1 [Example 208, tert-butyl 4-(2-(2-aminopyridin-3-yl)-5-(pyridin-4-yl)-3H-imidazo[4,5-b]pyridin-3-yl)benzylcarbamate]
210	Cc1ccnc2c1nc(-c1cccnc1N)n2-c1ccc(CNC(=O)c2ccccc2)cc1 [Example 210, N-(4-(2-(2-aminopyridin-3-yl)-7-methyl-3H-imidazo[4,5-b]pyridin-3-yl)benzyl)benzamide]
61	Cc1cnc2c(c1)nc(-c1cccnc1N)n2-c1ccc(CNC(=O)c2cccc(N(C)C)c2)cc1 [Example 211, N-(4-(2-(2-aminopyridin-3-yl)-6-methyl-3H-imidazo[4,5-b]pyridin-3-yl)benzyl)-3-(dimethylamino)benzamide]
